Source: patent publication US8741970B2, “Composition and method for the enhancement of the efficacy of drugs” (Alchemia Oncology Pty Limited, priority 1999, dated 2014)
Where “and” joins values, the source holds several entries; their conditions need not be identical. Equal values may be shown once.

Assays:
[1] = in vivo; cited from earlier work
[2] = 1H NMR titration and diffusion experiments of 5-FU with HA; format: physicochemical; conditions: 600 MHz 1H NMR titration; HA 750 kDa, 3 mg/mL; pH 8.8 to 9.1
Protocol: To further investigate the nature of the interaction between HA and chemotherapeutic drugs 1H Nuclear Magnetic Resonance (NMR) spectroscopy was used. Deuterium oxide (^2H2O (99.96%)) was obtained from Cambridge Isotope Laboratories. MTX was obtained from Faulding Pharmaceuticals and 5-FU and HA stock solutions were prepared as described previously.
Spectra were recorded at 298 K on a Brüker DRX spectrometer operating at 600 MHz with a shielded gradient unit. The 2D experiments were recorded in phase-sensitive mode using time-proportional phase incrementation for quadrature detection in the t1 dimension (Marion & Wüthrich, 1983). The 2D experiments included TOCSY sequence using a MLEV-17 spin lock sequence (Bax & Davis, 1985) with a mixing time of 120 ms; NOESY (Kumar et al., 1980) with mixing times of 250 and 400 ms and ROESY spectrum with a mixing time of 250 ms. Temperature calibration of the probe was achieved by comparison to ethylene glycol chemical shifts. All chemical shifts (ppm) were referenced to the methyl resonance of 4,4-dimethyl-4-silapentane-1-sulfonate (DSS, 0 ppm).
NMR diffusion experiments were acquired on a Brüker AMX spectrometer equipped with a gradient control unit operating at 500 MHz. All experiments were acquired with 16 or 64 scans at 298 K over 16K of data points and 7575 Hz. A gradient strength of 15.44 G/cm was employed for the diffusion experiments. […]

[3] = iv 10.5 mg/kg (400 mg/m^2), within 30 min; cited from earlier work
MDA-MB-468 = experiment: Drug cytotoxicity assay (cell count after 4 days in test media), MDA-MB-468; format: cell-based; conditions: Homo sapiens, 96 h, 5-FU alone
Protocol: A stock of HA solution (10 μM, 7 mg/ml) was prepared by dissolving desiccated HA (modal Mr 7×10^5 Da,) in 0.9% w/v pyrogen-free injection grade NaCl. To ensure a homogenous solution the HA was dissolved overnight at 4° C. followed by thorough vortexing. To ensure that ‘the HA had maintained its molecular weight during the preparation of the stock solution, the solution was analysed on a Sephacryl S-1000 size exclusion gel with column −40 specifications of 1.6 cm×70 cm, sample size 2 ml, flow rate 18.1/h and 2 ml fraction size. The HA was used at a final concentration of 1000 nm, with all dilutions made in the appropriate growth medium.
Based on these plasma concentrations in vivo the following drug concentrations were selected; 0, 1, 5, 10, 20, 50, 100 μM 5-FU±100 nM HA. […] When the cultures reached confluence the cells were removed from the flasks in 0.25% trypsin/0.05% EDTA. The single-cell suspension was counted with a Coulter counter (ZM1 model) and cells were resuspended to 100,000 cells/ml in cell-specific media. Cells were plated into 24-well plates (2 cm^2 surface area) by adding 0.5 ml of cell suspension per well, resulting in 50,000 cells/well. […] After 4 days of growth in test media the cultures were washed with HBSS, the cells removed from the well by trypsinisation with 0.25% trypsin/0.05% EDTA and cells were counted with a Coulter Counter.

[4] = system: Human Breast Cancer Xenografts (MDA-MB-468); experiment: 5-FU/HA adjuvant therapy efficacy, 6-week study; format: in vivo
Protocol: (§1) One of the most commonly used treatment regimens for human breast cancer is cyclophosphamide, methotrexate and 5-fluorouacil which is administered on day 1 and 8 of a 28 day cycle. In human breast cancer the initial treatment regimen is for 6 cycles at which time the patient condition is re-assessed, therefore we tried to simulate the human treatment regimen as closely as possible by exposing the mice to 6 cycles (6 months) of treatment in a long term efficacy study and a 6 cycles (6 week) short term efficacy study. Considering the life cycle of a mouse is approximately 2 years we commenced both short-term and long-term treatment protocols as shown in Table 8.
(§2) Mice were randomly divided into 7 groups of 8 animals per group for the short term study and 5 groups of 8 animals for the long term study (refer to Table 8 for dosage and treatment administration schedule).
(§3) Animals were weighed and tumour volumes measured on the day of treatment application for long term study as described in Example 8. In the 6-week study animals were weighed and tumour volumes measured on a daily basis. […] It has been experimentally proven that stress can be a major factor in a patients response to chemotherapy (Shackney et al, 1978), therefore we ensured that equal numbers of mice were allocated to each cage, the animal number per cage varied from 5-8 depending on the stage of experimentation.
(§4) The experimental end-point occurred when the animal had to be euthanised due to degree of disease progression or when the 6 month (long term) or 6 week (short term) treatment regimen was completed. Due to the animal ethics guidelines the animals were monitored fortnightly by an independent animal ethics officer who assessed the degree of disease progression.
The tissue was fixed for 16-24 h before histological processing. Fixed tissue was dehydrated stepwise to 100% ethanol and embedded in paraffin blocks from which 2-4 μm sections were placed on glass microscope slides. Staining the tissue sections with a haematoxylin nuclear stain and eosin cytoplasmic stain highlighted any pathological features that could indicate treatment toxicity.
Nine to 11 lymph nodes were collected per animal, ensuring that all nodes which drained the tumour area were collected. There are currently two methods used for the detection of lymph node metastasis:
The haematoxylin and eosin stained lymph nodes were examined by Dr P. Allen (certified pathologist) where each node was microscopically examined for the presence of tumour cells. The CEA immunostained lymph nodes were microscopically examined, where any positively stained nodes were counted and considered positive for lymph node metastasis.
Tumour volume was monitored on a daily or weekly basis by calliper measurements and tumour volume calculated as previously described in example 8.
One of the most common toxic effects of 5-FU is on the gastro-intestinal tract where haemorrhagic enteritis and intestinal perforation can occur (Martindale, 1993). Animals were monitored daily for GI tract upset such as diarrhoea and weekly for more severe toxicity manifestations such as weight loss. Weight loss was monitored by calculating net body weight as estimated by subtracting tumour weight, which was calculated as 1 g×tumour volume (cm^3) as cited in Shibamoto et al, 1996.

[5] = system: Human Breast Cancer Xenografts (MDA-MB-468); experiment: 5-FU/HA adjuvant therapy efficacy, 6-month study; format: in vivo
Protocol: as §1, §2, §3, §4
The TDT is the time taken (days) for a tumour to double in mass or cell number, a parameter of tumour growth which is simple to measure and can be easily related to clinical tumour behaviour in conceptional terms (Shackney et al, 1978). By monitoring the tumour doubling time it is often possible to evaluate tumour chemotherapeutic response, as slowly growing tumours tend to respond poorly to chemotherapy (Schabel, 1975).
The overall patient survival time was calculated as the time (days or weeks) that the animal lived after the commencement of treatment.

[6] = 1H NMR deuterium exchange and transferred NOESY of MTX with HA; format: physicochemical
Text: Solvent suppression of the water signal for NOESY, ROESY and TOCSY experiments was achieved using a modified WATERGATE sequence (Piotto et al., 1992) in which two gradient pulses of 1 ms was applied on either side of a binomial 3-9-19 pulse. Spectra was routinely acquired over 6024 Hz with 4096 complex data points in F2 and 512 increments in the F1 dimension, with 32 scans per increment for the TOCSY experiments and 80 scans for the NOESY. Slowly exchanging NH protons were detected by acquiring a series of one-dimensional (1D) spectra acquired over 16K data points and with 32 scans. […]

[7] = system: murine Lewis lung xenografts; conditions: low dose of 0.01 mg/kg; cited from earlier work
[8] = control schedule HA D1,3 / 5-FU D 2, 4 of 7 day cycle

## O=c1[nH]cc(F)c(=O)[nH]1 [5-FU, 5-fluorouracil]
[1]
  cure rate: 26%
[2]
  interaction of 5-FU with HA (chemical shift of CH peak): does not appear to be interacting
[3]
  peak plasma level: 8 μg/ml and 61 μM
MDA-MB-468
  IC50: > 50 µM
[4]
  primary tumour at end of the 6 week study compared with the saline group: significantly smaller tumours
[4]; [8]
  Number of animal completing treatment: 8/8
  TDT Mean ± SEM: 15.3 ± 2.5 days
[4]; days 1 & 2 of 7 day cycle
  % of animals with lymph node metastasis: 100%
  % of lymph node involved per animal mean ± SEM: 14.3 ± 2.9%
  Number of new tumours: 1
[4]; days 1 & 2 of 7 day cycle (HA followed by 5-FU: days 1-4)
  Number of animal completing treatment: 8/8
[4]; days 1 & 2 of 7 day cycle (HA followed by 5-FU: days 1-4), 30 mg/kg 5-FU, 12.5 mg/kg HA
  TDT Mean ± SEM: 32.1 ± 3.5 days
[5]; 6-month study, % of animals
  Experimental endpoint: immobilsed: 62.5% immobilsed
[5]; 6-month study, after approximately 12 weeks of treatment
  mice experiencing a cure (tumours fully necrosed and dropped off): did not experience a “cure”
[5]; 6-month study, days 1 & 8 of 28 day cycle (HA followed by 5-FU: days 1, 2, 8, 9)
  TDT Mean ± SEM: 22.7 ± 2.9 days
[5]; mouse, in vivo
  Experimental endpoint: metabolic stress: 37.5% metabolic

## CN(Cc1cnc2nc(N)nc(N)c2n1)c1ccc(C(=O)N[C@@H](CCC(=O)O)C(=O)O)cc1 [MTX, methotrexate]
[6]; MTX and HA in 0.5% w/v Na2CO3 (pH 9), deuterium oxide added
  time for all amine hydrogens of MTX to exchange with deuterium: ≤ 4 min
[6]; MTX/HA, no crosspeaks
  interaction between MTX and HA (transferred NOESY): negligible interaction

## CO[C@@]12[C@H](COC(N)=O)C3=C(C(=O)C(C)=C(N)C3=O)N1C[C@@H]1N[C@@H]12 [mitomycin C]
[7]
  anti-tumour activity: did not demonstrate anti-tumour activity
